Measurements from ChEMBL document CHEMBL1201862, “PubChem BioAssay data set” (2004).
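Grown in 96-well plates, cells were treated for 48 hours with each compound at five concentrations. Insufficient inhibition: endpoint recorded as highest concentration tested. GI50 marks 50% less growth.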 Activity calls are given as the source filed them. Rule as the data show it: active = GI50 up to about 1.1 µM and inactive = higher.

Key:
Test in all cases: inhibition of tumour cell growth, NCI panel, 48 h
[1] = test system: A549
[2] = test system: DMS-273
[3] = test system: HCT-116
[4] = test system: HCT-15
[5] = test system: HOP-92
[6] = test system: HT-29
[7] = test system: K562
[8] = test system: M14
[9] = test system: MOLT-4
[10] = test system: SF-295
[11] = test system: SK-MEL-28
[12] = test system: SN12C
[13] = test system: SR
[14] = test system: UACC-62
[15] = test system: NCI-H522
[16] = test system: BT-549
[17] = test system: MCF7
[18] = test system: MDA-MB-231
[19] = test system: T47D
[20] = test system: NCI/ADR-RES

Row | SMILES | GI50 [1] | GI50 [2] | GI50 [3] | GI50 [4] | GI50 [5] | GI50 [6] | GI50 [7] | GI50 [8] | GI50 [9] | GI50 [10] | GI50 [11] | GI50 [12] | GI50 [13] | GI50 [14] | GI50 [15] | GI50 [16] | GI50 [17] | GI50 [18] | GI50 [19] | GI50 [20]
1 | O=C(/C=C/c1ccccc1)/C=C/c1ccccc1 | > 100 µM (inactive) | 38.7 µM (inactive) | 17.3 µM (inactive) | 23.6 µM | 34.8 µM (inactive) | 17.8 µM (inactive) | 28.8 µM (inactive) | 19.8 µM (inactive) | 20.7 µM (inactive) | 53.5 µM (inactive) | 18.5 µM (inactive) | 20.4 µM (inactive) | 26.2 µM (inactive) | 33 µM (inactive) |  |  |  |  |  | 
2 | CNS(=O)(=O)NNS(=O)(=O)c1ccccc1 | > 100 µM (inactive) | > 100 µM (inactive) | > 100 µM (inactive) | > 100 µM | > 100 µM (inactive) | > 100 µM (inactive) | > 100 µM (inactive) | > 100 µM (inactive) | > 100 µM (inactive) | > 100 µM (inactive) | > 100 µM (inactive) | > 100 µM (inactive) | > 100 µM (inactive) | > 100 µM (inactive) | > 100 µM (inactive) |  |  |  |  | 
3 | Cc1nc2c(s/c(=N\N)n2-c2ccccc2)c(=O)n1C | > 100 µM (inactive) | > 100 µM (inactive) | > 100 µM (inactive) | > 100 µM | > 100 µM (inactive) | > 100 µM (inactive) | > 100 µM (inactive) | > 100 µM (inactive) | > 100 µM (inactive) | > 100 µM (inactive) | > 100 µM (inactive) | > 100 µM (inactive) | > 100 µM (inactive) | > 100 µM (inactive) | > 100 µM (inactive) |  |  |  |  | 
4 | C/C=C1\CN2CCc3c([nH]c4ccccc34)C2C=C1CCO (centres undefined) | > 340 µM (inactive) | > 340 µM (inactive) | > 340 µM (inactive) | > 340 µM | > 340 µM (inactive) | > 340 µM (inactive) | > 340 µM (inactive) |  | > 340 µM (inactive) | > 340 µM (inactive) | > 340 µM (inactive) | > 340 µM (inactive) | > 340 µM (inactive) | > 340 µM (inactive) | > 340 µM (inactive) |  |  |  |  | 
5 | Cc1ccc(C)c(N2C(=O)C(=O)C(c3nc4ccccc4s3)/C(=N\c3cccc4c(=O)[nH][nH]c(=O)c34)C2=O)c1 (centres undefined) | > 100 µM (inactive) | > 100 µM (inactive) | > 100 µM (inactive) | > 100 µM | > 100 µM (inactive) | > 100 µM (inactive) | > 100 µM (inactive) | > 100 µM (inactive) | > 100 µM (inactive) | > 100 µM (inactive) | > 100 µM (inactive) | > 100 µM (inactive) | > 100 µM (inactive) | > 100 µM (inactive) |  |  |  |  |  | 
6 | C=C(CCCCC)CN1CCCC1[C@@](C)(O)CC(=O)OCC (some centres undefined) | > 100 µM (inactive) | > 100 µM (inactive) | > 100 µM (inactive) | > 100 µM | > 100 µM (inactive) | > 100 µM (inactive) | > 100 µM (inactive) | > 100 µM (inactive) | 90.2 µM (inactive) | > 100 µM (inactive) | > 100 µM (inactive) | > 100 µM (inactive) | 71.8 µM (inactive) | > 100 µM (inactive) | > 100 µM (inactive) |  |  |  |  | 
7 | COc1ccc(C2=CN3CCC[C@H]3C=C2c2cc(O)c(OC)c(OC)c2)cc1OC | 0.00394 µM (active) | 0.00354 µM (active) | 0.00198 µM (active) | 0.00362 µM | 0.0038 µM (active) | 0.0056 µM (active) | 0.00339 µM (active) | 0.00325 µM (active) | 0.00351 µM (active) | 0.00446 µM (active) | 0.0045 µM (active) | 0.00403 µM (active) | 0.00394 µM (active) | 0.00405 µM (active) | 0.00418 µM (active) | 0.0207 µM (active) | 0.005 µM (active) | 0.00631 µM (active) | 0.00371 µM (active) | 
8 | Cc1ccc(NC(=O)COC(=O)c2cccc3c(=O)c4ccccc4[nH]c23)cc1 | 36.6 µM (inactive) | 23.6 µM (inactive) | 14.6 µM (inactive) |  | 82.8 µM (inactive) | 36.6 µM (inactive) | 32.7 µM (inactive) | 68.5 µM (inactive) | 13.6 µM (inactive) | 35.7 µM (inactive) | 47.4 µM (inactive) | 32.1 µM (inactive) | 13 µM (inactive) | 30.6 µM (inactive) | 9.29 µM (inactive) |  |  |  |  | 
9 | O=C(OCCOCCOC(=O)c1c[nH]cc1-c1ccccc1)c1c[nH]cc1-c1ccccc1 | 22.2 µM (inactive) | 15.9 µM (inactive) | 16 µM (inactive) | 19.2 µM | 20.3 µM (inactive) | 18.8 µM (inactive) | 28.9 µM (inactive) | 14.8 µM (inactive) | 17.9 µM (inactive) | 18.4 µM (inactive) |  | 18.1 µM (inactive) | 21 µM (inactive) | 15.9 µM (inactive) | 15.3 µM (inactive) |  |  |  |  | 
10 | C=C1C(C)C2C(Cc3ccccc3)NC(=O)C23OC(=O)/C=C\CC(=O)CCC(C)C/C=C/C3C1O (centres undefined) | 4.41 µM (inactive) | 2.34 µM (inactive) | 2.54 µM (inactive) | 1.28 µM | 0.581 µM (active) | 1.54 µM (inactive) | 0.757 µM (active) |  | 0.91 µM (active) | 2.54 µM (inactive) | 1.39 µM (inactive) | 1.93 µM (inactive) |  | 2.45 µM (inactive) | 0.859 µM (active) |  |  |  | 0.635 µM (active) | 
11 | CC1(C(=O)NCCN(CCNC(=O)C2(C)CC3(C)CC(C)(C2)C(=O)NC3=O)CCNC(=O)C2(C)CC3(C)CC(C)(C2)C(=O)NC3=O)CC2(C)CC(C)(C1)C(=O)NC2=O (centres undefined) | > 100 µM (inactive) | > 100 µM (inactive) | > 100 µM (inactive) | > 100 µM | < 0.01 µM (active) | > 100 µM (inactive) | > 100 µM (inactive) | > 100 µM (inactive) | > 100 µM (inactive) | > 100 µM (inactive) | > 100 µM (inactive) | > 100 µM (inactive) | > 100 µM (inactive) | > 100 µM (inactive) |  |  |  |  |  | 
12 | Nc1nc(N)c(-c2ccc(Cl)cc2)c(CCC(=O)Nc2cccc(C(F)(F)F)c2)n1 | > 100 µM (inactive) | > 100 µM (inactive) | > 100 µM (inactive) | > 100 µM |  | > 100 µM (inactive) | > 100 µM (inactive) | > 100 µM (inactive) | > 100 µM (inactive) | > 100 µM (inactive) | > 100 µM (inactive) | > 100 µM (inactive) | > 100 µM (inactive) | > 100 µM (inactive) | > 100 µM (inactive) |  |  |  |  | 
13 | COC(=O)/C(=N\NC(C)(C)C)C(C(=O)OC)C(=O)C(=O)Nc1cc(Cl)ccc1Cl (centres undefined) | > 100 µM (inactive) | > 100 µM (inactive) | > 100 µM (inactive) | > 100 µM | > 100 µM (inactive) | > 100 µM (inactive) | > 100 µM (inactive) | > 100 µM (inactive) | > 100 µM (inactive) | > 100 µM (inactive) | > 100 µM (inactive) | > 100 µM (inactive) | > 100 µM (inactive) | > 100 µM (inactive) | > 100 µM (inactive) |  |  |  |  | 
14 | CCCCNC(=O)CCN(C(=O)O)S(=O)(=O)c1ccc(NC(=O)c2ccccc2)cc1 | > 100 µM (inactive) | 30.4 µM (inactive) | > 100 µM (inactive) | > 100 µM | > 100 µM (inactive) | 22 µM (inactive) | 37 µM (inactive) | > 100 µM (inactive) | > 100 µM (inactive) | > 100 µM (inactive) | > 100 µM (inactive) | > 100 µM (inactive) | > 100 µM (inactive) | > 100 µM (inactive) | > 100 µM (inactive) |  |  |  |  | 
15 | Nc1ccc(C(=O)Nc2ccccc2N)cc1 [DINALINE] | 38.6 µM (inactive) | 59.7 µM (inactive) | 14.2 µM (inactive) | 54 µM | 37.9 µM (inactive) | 25.9 µM (inactive) | 14.1 µM (inactive) | 65.2 µM (inactive) | 11.8 µM (inactive) | 26.1 µM (inactive) | 24.5 µM (inactive) | 60 µM (inactive) | 16.3 µM (inactive) | 16.1 µM (inactive) | 11.1 µM (inactive) | 67.6 µM (inactive) | 20.9 µM (inactive) | 30.3 µM (inactive) |  | 3.21 µM (inactive)
16 | CO[C@H]1[C@H](O)[C@H](O[C@H]2CC[C@@]3(C)[C@H](CC[C@@H]4[C@@H]3CC[C@]3(C)[C@@H](C5=CC(=O)OC5)CC[C@]43O)C2)O[C@@H](C)[C@@H]1O [NERIIFOLIN] | 0.000379 µM (active) | 0.000548 µM (active) | 0.000689 µM (active) | 0.00112 µM | 0.00123 µM (active) | 0.000615 µM (active) |  | 0.00139 µM (active) | 0.000377 µM (active) | 0.00056 µM (active) | 0.00189 µM (active) | 0.000211 µM (active) | < 0.01 µM (active) | 0.00155 µM (active) | 0.000151 µM (active) | 0.000429 µM (active) | 0.00076 µM (active) | 0.00165 µM (active) | 0.000628 µM (active) | 0.000546 µM (active)
